Assays:
[1] = tested on: tomato late blight pathogen (Phylophihora infeslans); assay: whole plant or invertebrate; assay type: in vivo; conditions: Phytophthora infestans, 96 h, read-out: Control value
[2] = tested on: grape downy mildew pathogen (Plasmopara viticola); assay: Grape downy mildew control test (Test Example 2); assay type: in vivo; conditions: 100 ppm by mass, sprayed on grape leaf disc (variety Chardonnay) before inoculation, blotch area ratio seven days after inoculation, 20° C.; for pest or weed control at 100 ppm: Plasmopara viticola, foliar, 168 h
Protocol: 5 parts by mass of the compound according to the present invention, 93.5 parts by mass of dimethylformamide, and 1.5 parts by mass of polyoxyethylene alkylaryl ether were mixed and dissolved to prepare an emulsion (I) containing 5% by mass of an active ingredient.
The control value was calculated according to the following formula.
Control value (%)=100−{blotch area ratio in treated area/blotch area ratio in untreated area}×100
Water was added to the emulsion (I) such that the concentration of the heterocyclic compound became 100 ppm by mass, and then the heterocyclic compound was dissolved therein to obtain a pharmaceutical solution. Then, the pharmaceutical solution was sprayed on a leaf disc of grape (variety “Chardonnay”) placed on agar in a 6-well plate. After air-drying, the leaf disc on which the pharmaceutical solution was sprayed was inoculated with zoosporangia of grape downy mildew pathogen (Plasmopara viticola) in a suspension by spraying the suspension thereon (treated area). As a control, a leaf disc on which no pharmaceutical solution was sprayed was inoculated in the same way as mentioned above (untreated area). The resultant leaf discs were left in a moist chamber at 20° C. Seven days after inoculation, the grape leaf discs were visually observed to measure the blotch area ratio to calculate the control value.

| SMILES | pest or weed control at 125 ppm [1] | pest or weed control at 100 ppm [2] | melting point | Control value [2] |
| --- | --- | --- | --- | --- |
| CO/N=C/c1cc(C(Oc2ccc3ncsc3c2)c2nnco2)ncc1F (stereo not drawn) [b-15] | ≥ 75% | ≥ 75% | 136 to 138 °C |  |
| CO/N=C/c1cc(C(Oc2ccc3nc(C4CC4)sc3c2)c2nnco2)ncc1F (stereo not drawn) [b-76] | ≥ 75% | ≥ 75% | 103 to 104 °C |  |
| Fc1ccc(C(Oc2cc(Br)c3ncsc3c2)c2nnco2)nc1 (stereo not drawn) [a-20, 2-((4-bromobenzo[d]thiazol-6-yloxy)(5-fluoropyridin-2-yl)methyl)-1,3,4-oxadiazole] | ≥ 75% | ≥ 75% |  |  |
| CO/N=C/c1cc(C(Oc2ccc3nc(I)sc3c2)c2nnco2)ncc1F (stereo not drawn) [b-53] |  | ≥ 75% | 166 to 168 °C |  |
| Cn1cnc2c(F)cc(OC(c3ccc(F)cn3)c3nnco3)cc21 (stereo not drawn) [b-8] | ≥ 75% |  |  |  |
| CO/N=C/c1cc(C(Oc2ccc3nc(Br)sc3c2)c2nnco2)ncc1F (stereo not drawn) [b-43] |  | ≥ 75% | 151 to 154 °C |  |
| CO/N=C/c1ccnc(C(Oc2ccc3ncsc3c2)c2nnco2)c1 (stereo not drawn) [b-9] | ≥ 75% | ≥ 75% |  |  |
| CCc1cc(OC(c2cc(/C=N/OC)ccn2)c2nnco2)cc2scnc12 (stereo not drawn) [b-14] | ≥ 75% | ≥ 75% |  |  |
| CO/N=C/c1ccnc(C(Oc2cc(Br)c3ncsc3c2)c2nnco2)c1 (stereo not drawn) [b-13] | ≥ 75% | ≥ 75% |  |  |
| C(=N\OCC1CC1)/c1ccnc(C(Oc2ccc3ncsc3c2)c2nnco2)c1 (stereo not drawn) [b-68] | ≥ 75% | ≥ 75% |  |  |
| CC(C)=NOc1ccnc(C(Oc2ccc3ncsc3c2)c2nnco2)c1 (stereo not drawn) [b-33] | ≥ 75% | ≥ 75% |  |  |
| CCCCC(Oc1ccc2ncsc2c1)c1nnco1 (stereo not drawn) [a-1, 2-(1-(benzo[d]thiazol-6-yloxy)pentyl)-1,3,4-oxadiazole] | ≥ 75% |  |  |  |
| COCCO/N=C/c1ccnc(C(Oc2ccc3ncsc3c2)c2nnco2)c1 (stereo not drawn) [b-70] | ≥ 75% | ≥ 75% |  |  |
| Fc1ccc(C(Oc2ccc3ncsc3c2)c2nnco2)nc1 (stereo not drawn) [a-8, 2-((benzo[d]thiazol-6-yloxy)(5-fluoropyridin-2-yl)methyl)-1,3,4-oxadiazole] | ≥ 75% | ≥ 75% |  |  |
| CO/N=C/c1cc(C(Oc2ccc3ncsc3c2N)c2nnco2)ncc1F (stereo not drawn) [b-78] | ≥ 75% |  |  |  |
| FC(F)(F)CO/N=C/c1ccnc(C(Oc2ccc3ncsc3c2)c2nnco2)c1 (stereo not drawn) [b-19] |  | ≥ 75% | 128 to 130 °C |  |
| CO/N=C/c1cc(C(Oc2ccc3nc(C)sc3c2)c2nnco2)ncc1F (stereo not drawn) [b-71] |  |  | 167 to 168 °C |  |
| CO/N=C/c1cc(C(Oc2ccc3ncsc3c2)c2nnco2)ncc1C (stereo not drawn) [b-59] |  | ≥ 75% |  |  |
| CCCCON=CC(Oc1ccc2ncsc2c1)c1nnco1 (stereo not drawn) [b-83] |  | ≥ 75% |  |  |
| C(=N\OCc1nnco1)/c1ccnc(C(Oc2ccc3ncsc3c2)c2nnco2)c1 (stereo not drawn) [b-67] | ≥ 75% |  |  |  |
| CO/N=C/c1cc(C(Oc2ccc3ncsc3c2C)c2nnco2)ncc1F (stereo not drawn) [b-77] |  | ≥ 75% | 108 to 110 °C |  |
| c1ccc(C(Nc2ccc3ncsc3c2)c2nnco2)cc1 (stereo not drawn) [b-5] | ≥ 75% |  |  |  |
| CC#Cc1ccnc(C(Oc2ccc3ncsc3c2)c2nnco2)c1 (stereo not drawn) [a-45, 2-((benzo[d]thiazol-6-yloxy)(4-(prop-1-yn-1-yl)pyridin-2-yl)methyl)-1,3,4-oxadiazole] | ≥ 75% | ≥ 75% |  |  |
| c1ccc(-c2ccnc(C(Oc3ccc4nnsc4c3)c3nnco3)c2)cc1 (stereo not drawn) [b-51] | ≥ 75% | ≥ 75% |  |  |
| C(=NOCc1ccccc1)C(Oc1ccc2ncsc2c1)c1nnco1 (stereo not drawn) [b-81] |  | ≥ 75% |  |  |
| CO/N=C/c1cc(C(Oc2ccc3ncsc3c2)c2nnco2)ncc1Br (stereo not drawn) [b-39] | ≥ 75% | ≥ 75% |  |  |

| SMILES | pest or weed control at 125 ppm [1] | pest or weed control at 100 ppm [2] | melting point | Control value [2] |
| --- | --- | --- | --- | --- |
| CO/N=C/c1ccnc(C(Oc2ccc3ncsc3c2)c2nnco2)n1 (stereo not drawn) [b-25] | ≥ 75% |  |  |  |
| CC(C)O/N=C/c1ccnc(C(Oc2ccc3ncsc3c2)c2nnco2)c1 (stereo not drawn) [b-18] | ≥ 75% | ≥ 75% |  |  |
| CCCO/N=C/c1ccnc(C(Oc2ccc3ncsc3c2)c2nnco2)c1 (stereo not drawn) [b-69] | ≥ 75% | ≥ 75% |  |  |
| CCCCC(Oc1ccc2ncn(C)c2c1)c1nnco1 (stereo not drawn) [b-4] | ≥ 75% |  |  |  |
| CO/N=C/c1cc(C(Oc2ccc3ncsc3c2)c2nnco2)ncc1SC (stereo not drawn) [b-41] |  | ≥ 75% |  |  |
| CO/N=C/c1ccnc(C(Oc2ccc3nnsc3c2)c2nnco2)c1 (stereo not drawn) [b-16] |  | ≥ 75% | 172 to 173 °C |  |
| CCc1nc2ccc(OC(c3cc(/C=N/OC)ccn3)c3nnco3)cc2s1 (stereo not drawn) [b-29] | ≥ 75% | ≥ 75% |  |  |
| Cc1nc2ccc(OC(c3cc(/C=N/OCC4CC4)c(F)cn3)c3nnco3)cc2s1 (stereo not drawn) [b-49] | ≥ 75% | ≥ 75% |  |  |
| Cn1cnc2ccc(OC(c3ccc(Cl)cc3)c3nnco3)cc21 (stereo not drawn) [b-7] | ≥ 75% |  |  |  |
| CO/N=C/c1ccnc(C(Oc2ccc3nc(OC)sc3c2)c2nnco2)c1 (stereo not drawn) [b-28] |  | ≥ 75% |  |  |
| CO/N=C/c1cc(C(Oc2ccc3ncsc3c2)c2nnco2)ncc1[S+](C)[O-] (stereo not drawn) [b-61] |  | ≥ 75% | 85 to 88 °C |  |
| CNc1nc2ccc(OC(c3cc(/C=N/OC)ccn3)c3nnco3)cc2s1 (stereo not drawn) [b-36] | ≥ 75% | ≥ 75% |  |  |
| COCCO/N=C/c1cc(C(Oc2ccc3nc(C)sc3c2)c2nnco2)ncc1F (stereo not drawn) [b-86] | ≥ 75% | ≥ 75% |  |  |
| CO/N=C/c1cc(C(Oc2ccc3nc(OC)sc3c2)c2nnco2)ncc1F (stereo not drawn) [b-54] |  | ≥ 75% | 134 to 136 °C |  |
| CCc1cc(OC(c2cc(/C=N/OC)c(Br)cn2)c2nnco2)cc2sc(C)nc12 (stereo not drawn) [b-52] |  | ≥ 75% | 160 to 161 °C |  |
| C#CCO/N=C/c1ccnc(C(Oc2ccc3ncsc3c2)c2nnco2)c1 (stereo not drawn) [b-20] | ≥ 75% | ≥ 75% |  |  |
| CCOCc1ccnc(C(Oc2ccc3ncsc3c2)c2nnco2)c1 (stereo not drawn) [a-75] |  |  |  | a-75% |
| CO/N=C/c1cc(C(Oc2ccc3ncsc3c2)c2nnco2)ncc1Cl (stereo not drawn) [b-37] | ≥ 75% | ≥ 75% |  |  |
| CO/N=C/c1cc(C(Oc2ccc3nc(C(F)F)sc3c2)c2nnco2)ncc1F (stereo not drawn) [b-72] |  | ≥ 75% | 143 to 144 °C |  |
| Cn1cnc2ccc(OC(c3ccc(F)cn3)c3nnco3)cc21 (stereo not drawn) [b-6] | ≥ 75% |  |  |  |
| COCCO/N=C/c1cc(C(Oc2ccc3ncsc3c2)c2nnco2)ncc1F (stereo not drawn) [b-85] | ≥ 75% | ≥ 75% |  |  |
| CO/N=C/c1cc(C(Oc2cc(Br)c3ncsc3c2)c2nnco2)ncc1F (stereo not drawn) [b-56] | ≥ 75% |  | 170 to 172 °C |  |
| COCOCc1ccnc(C(Oc2ccc3nc(C)sc3c2)c2nnco2)c1 (stereo not drawn) [a-175] |  |  |  | a-175% |
| Cn1cnc2ccc(OC(c3ccccc3)c3nnco3)cc21 (stereo not drawn) [b-3] | ≥ 75% |  | 114 to 116 °C |  |
| CO/N=C\c1cc(C(Oc2ccc3ncsc3c2)c2nnco2)ncc1F (stereo not drawn) [b-38] | ≥ 75% | ≥ 75% |  |  |
